Reference: patent US6768019B2 (Cheil Jedang Corporation, priority 2001, dated 2004)

Legend:
cyclooxygenase-1 = target: T1, cyclooxygenase-1 (Mus musculus, UniProt P22437); test: Inhibition of cyclooxygenase-1 in mouse peritoneal macrophages (PGE2 ELISA); assay type: cell-based
T1 construct: endogenous in cells; host or cells: primary mouse peritoneal macrophages (unstimulated)
T1 sequence (P22437 27-602): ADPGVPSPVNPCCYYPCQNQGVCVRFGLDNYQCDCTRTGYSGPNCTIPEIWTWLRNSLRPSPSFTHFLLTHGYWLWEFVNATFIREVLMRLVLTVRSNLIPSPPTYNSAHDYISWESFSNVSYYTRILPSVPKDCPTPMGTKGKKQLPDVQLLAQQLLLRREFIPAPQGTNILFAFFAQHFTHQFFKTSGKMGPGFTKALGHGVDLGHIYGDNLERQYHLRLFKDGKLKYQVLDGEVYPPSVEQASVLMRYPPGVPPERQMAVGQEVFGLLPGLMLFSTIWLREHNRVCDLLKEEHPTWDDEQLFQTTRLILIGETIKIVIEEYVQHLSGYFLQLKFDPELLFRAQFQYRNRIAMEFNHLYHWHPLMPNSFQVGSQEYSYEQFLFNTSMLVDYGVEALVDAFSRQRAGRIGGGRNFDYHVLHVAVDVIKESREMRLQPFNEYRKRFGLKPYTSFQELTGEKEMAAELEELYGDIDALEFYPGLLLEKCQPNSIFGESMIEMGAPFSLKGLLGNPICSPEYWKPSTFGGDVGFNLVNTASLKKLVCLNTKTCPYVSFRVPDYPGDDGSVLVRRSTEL
Procedure: First of all, the cyclooxygenase-1 was examined through the following procedure.
Peritoneal fluid in which macrophages were suspended was extracted from a mouse peritoneal cavity and centrifuged at 4° C., 1,000 rpm for 2 minutes. Then, the supernatant was removed, suspended with 20 ml of incomplete (no serum) RPMI medium [PC/SM (penicilin/streptomycin)] and again centrifuged under the same condition. […] Then, the cell number was calculated with the hemocytometer and adjusted to reach 1×10^6 cells/ml of cell concentration in the final cell suspension. 100 μl of the resulting suspension was transferred into each well of 96-well plate and left at 37° C. in 5% CO2 with the incubator for about 2 hours in order to attach macrophages. […] The resulting cell was cultivated in the incubator at 37° C. in 5% CO2 for about 12˜16 hours. Then, arachidonic acid was added, adjusting to 10 μM of a final concentration and incubated at 37° C. for more 10 minutes and the supernatant of the reacted solution (˜180 μl) was recovered to finish the reaction.

cyclooxygenase-2 = target: T2, cyclooxygenase-2 (Mus musculus, UniProt Q05769); test: Inhibition of cyclooxygenase-2 in aspirin-pretreated, LPS-stimulated mouse peritoneal macrophages (PGE2 ELISA); assay type: cell-based
T2 construct: Peritoneal fluid suspended with macrophages was extracted from a mouse peritoneal cavity; endogenous in cells; host or cells: primary mouse peritoneal macrophages, pretreated with 500 uM aspirin and stimulated with 10 ug/ml LPS
T2 sequence (Q05769 18-604): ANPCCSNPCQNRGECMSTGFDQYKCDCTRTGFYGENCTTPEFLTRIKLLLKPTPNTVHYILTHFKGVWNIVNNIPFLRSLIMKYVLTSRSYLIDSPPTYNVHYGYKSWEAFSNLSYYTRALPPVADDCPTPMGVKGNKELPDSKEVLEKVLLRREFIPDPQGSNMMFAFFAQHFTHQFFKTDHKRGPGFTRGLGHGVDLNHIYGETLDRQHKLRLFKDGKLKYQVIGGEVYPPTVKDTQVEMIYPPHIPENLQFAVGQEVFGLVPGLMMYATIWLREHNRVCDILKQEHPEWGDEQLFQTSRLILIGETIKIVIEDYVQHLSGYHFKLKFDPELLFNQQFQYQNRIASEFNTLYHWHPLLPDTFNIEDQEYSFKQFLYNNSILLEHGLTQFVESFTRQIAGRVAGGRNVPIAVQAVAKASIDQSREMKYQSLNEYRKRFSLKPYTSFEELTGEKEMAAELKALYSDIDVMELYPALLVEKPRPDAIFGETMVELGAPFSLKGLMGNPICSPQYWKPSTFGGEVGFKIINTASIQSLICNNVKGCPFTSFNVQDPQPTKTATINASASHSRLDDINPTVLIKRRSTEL
Procedure: Second, the cyclooxygenase-2 was examined through the following procedure.
Peritoneal fluid suspended with macrophages was extracted from a mouse peritoneal cavity and centrifuged at 4° C., 1,000 rpm for 2 minutes. Then, the supernatant was removed, suspended using incomplete RPMI medium [PC/SM (penicilin/streptomycin)] and again centrifuged under the same condition. […] Then, the cell number was calculated with the hemocytometer and adjusted to reach 1×10^6 cells/ml of cell concentration in the final cell suspension. The resulting suspension was treated with aspirin, adjusting 500 μM of final concentration and transferred into each well of 96-well plate in 100 μl respectively. Again, it was left at 37° C. in 5% CO2 in the incubator for about 2 hours in order to attach macrophages. […] The resulting cell was cultivated in the incubator at 37° C. in 5% CO2 for about 12˜16 hours. Then, arachidonic acid was added, adjusting to 10 μM of a final concentration and incubated at 37° C. for more 10 minutes and the supernatant of the reacted solution (˜180 μl) was recovered to finish the reaction.

[1] = in words, versus comparative substance

Row | Inhibitory effects of cyclooxygenase (COX), COX-1 (cyclooxygenase-1; 3 μM) [% inhibition] | Inhibitory effects of cyclooxygenase (COX), COX-1 (cyclooxygenase-1; 10 μM) [% inhibition] | Inhibitory effects of cyclooxygenase (COX), COX-1 (cyclooxygenase-1; 30 μM) [% inhibition] | Inhibitory effects of cyclooxygenase (COX), COX-2 (cyclooxygenase-2; 30 nM) | Inhibitory effects of cyclooxygenase (COX), COX-2 (cyclooxygenase-2; 100 nM) | Inhibitory effects of cyclooxygenase (COX), COX-2 (cyclooxygenase-2; 300 nM) | selectivity of cyclooxygenase-2 (cyclooxygenase-2; in words, COX-2 over COX-1) | SMILES | inhibition effect against cyclooxygenase-1 compared with comparative substance (cyclooxygenase-1; [1]) | inhibition effect against cyclooxygenase-2 compared with comparative substance (cyclooxygenase-2; [1])
1 | 60.3 | 71.1 | 80.1 | 55.4 % inhibition | 69.9 % inhibition | 81.5 % inhibition |  | CO/N=C1\CCc2ccccc2C1=Cc1ccc(S(C)(=O)=O)cc1 [Example 4, (E)-1-(4-methanesulfonyl-benzylidene)-3,4-dihydro-1H-naphthalene-2-one O-methyl Oxime] |  | 
2 | 60.4 | 64.4 | 74.6 | 50.1 % inhibition | 58.8 % inhibition | 70.2 % inhibition |  | CCO/N=C1\CCc2ccccc2C1=Cc1ccc(S(C)(=O)=O)cc1 [Example 3, (E)-1-(4-methanesulfonyl-benzylidene)-3,4-dihydro-1H-naphthalene-2-one O-ethyl Oxime] |  | 
3 | 7.6 | 32.3 | 53.9 | 22.1 % inhibition | 28.6 % inhibition | 29.6 % inhibition |  | CC(=O)O/N=C1\CCc2ccccc2C1=Cc1ccc(S(C)(=O)=O)cc1 [Example 8, (E)-1-(4-methanesulfonyl-benzylidene)-3,4-dihydro-1H-naphthalene-2-one O-acetyl-oxime] |  | 
4 | 22.8 | 31.1 | 42.1 | 20.4 % inhibition | 25.5 % inhibition | 30.1 % inhibition |  | CS(=O)(=O)c1ccc(C=C2/C(=N/OC(=O)COCc3ccccc3)CCc3ccccc32)cc1 [Example 9, (E)-1-(4-methanesulfonyl-benzylidene)-3,4-dihydro-1H-naphthalene-2-one O-benzyloxyacetyl-oxime] |  | 
5 | 56.7 | 68.7 | 80.4 | 15.7 % inhibition | 20.7 % inhibition | 22 % inhibition |  | CS(=O)(=O)c1ccc(C=C2/C(=N/O)CCc3ccccc32)cc1 [Example 2, (E)-1-(4-methanesulfonyl-benzylidene)-3,4-dihydro-1H-naphthalene-2-one oxime] |  | 
6 | 39.9 | 47.1 | 54.3 | 51.2 % inhibition | 55.4 % inhibition | 61.4 % inhibition |  | CS(=O)(=O)c1ccc(C=C2/C(=N/OCc3ccccc3)CCc3ccccc32)cc1 [Example 5, (E)-1-(4-methanesulfonyl-benzylidene)-3,4-dihydro-1H-naphthalene-2-one O-benzyl Oxime] |  | 

More lines, now with the values behind:

Row | SMILES | Inhibitory effects of cyclooxygenase (COX), COX-1 (cyclooxygenase-1; 3 μM) [% inhibition] | Inhibitory effects of cyclooxygenase (COX), COX-1 (cyclooxygenase-1; 10 μM) [% inhibition] | Inhibitory effects of cyclooxygenase (COX), COX-1 (cyclooxygenase-1; 30 μM) [% inhibition] | Inhibitory effects of cyclooxygenase (COX), COX-2 (cyclooxygenase-2; 30 nM) | Inhibitory effects of cyclooxygenase (COX), COX-2 (cyclooxygenase-2; 100 nM) | Inhibitory effects of cyclooxygenase (COX), COX-2 (cyclooxygenase-2; 300 nM) | selectivity of cyclooxygenase-2 (cyclooxygenase-2; in words, COX-2 over COX-1) | inhibition effect against cyclooxygenase-1 compared with comparative substance (cyclooxygenase-1; [1]) | inhibition effect against cyclooxygenase-2 compared with comparative substance (cyclooxygenase-2; [1])
7 | CS(=O)(=O)c1ccc(/C=C2/C(=O)CCc3ccccc32)cc1 [Example 1, (E)-1-(4-methanesulfonyl-benzylidene)-3,4-dihydro-1H-naphthalene-2-one] | 33.2 | 40.7 | 45.8 | ˜0 % inhibition | ˜0 % inhibition | ˜0 % inhibition |  |  | 
8 | CS(=O)(=O)c1ccc(-c2[nH]nc3c2-c2ccccc2CC3)cc1 [Example 6, 1-(4-methanesulfonyl-phenyl)-4,5-dihydro-2H-benzo[e]indazole] | 52.3 | 57.3 | 64.8 | 33.4 % inhibition | 46.6 % inhibition | 54.9 % inhibition |  |  | 
9 | Cn1nc2c(c1-c1ccc(S(C)(=O)=O)cc1)-c1ccccc1CC2 [Example 10, 1-(4-methanesulfonyl-phenyl)-2-methyl-4,5-dihydro-2H-benzo[e]imidazole] | 49.8 | 55.3 | 61.5 | 20.2 % inhibition | 31.8 % inhibition | 61.0 % inhibition |  |  | 
10 | CS(=O)(=O)c1ccc(-c2onc3c2-c2ccccc2CC3)cc1 [Example 7, 1-(4-methanesulfonyl-phenyl)-4,5-dihydro-naphto[2,1-c]isooxazole] | 30 | 44.1 | 56.4 | 59.8 % inhibition | 70.6 % inhibition | 76.8 % inhibition | better than any other substances | much lower level than a comparative substance | more excellent than a comparative substance
